The results in this text go back to article PMC5408566 (2016).

Assay [1] deals with ATP DAs on ACE microarray (Cy3 ATP DNA Aptamer) (DNA, aptamer) TCACTGACCTGGGGGAGTATTGCGGAGGAAGGT
Put plainly: surface fluorescence loss (aptamer release), non-equilibrium. Particulars: immobilised ACE microarray; negative control ligand; no induced fit binding.

Assay [2] deals with 5′Q-5C:9 DA (Cy3 ATP DNA Aptamer with 5′Q-5C:9 ACE) (DNA, aptamer) TCACTGACCTGGGGGAGTATTGCGGAGGAAGGT
Put plainly: solution FRET (Cy3/BHQ-2) equilibrium titration. Particulars: 300 mM Na+, 5 mM Mg2+; apparent; 25 °C; 200 nM aptamer; quencher ACE 5′Q-5C:9 displaced, Q:F 1:1; n = 0.7.

The test system of assay [3] is 5′Q-5C:10 DA (Cy3 ATP DNA Aptamer with 5′Q-5C:10 ACE) (DNA, aptamer) TCACTGACCTGGGGGAGTATTGCGGAGGAAGGT
Put plainly: solution FRET (Cy3/BHQ-2) equilibrium titration. Particulars: 300 mM Na+, 5 mM Mg2+; apparent; 25 °C; 200 nM aptamer; quencher ACE 5′Q-5C:10 displaced, Q:F 1:1; n = 1.0.

Assay [4] relates to 5′Q-5C:11 DA (Cy3 ATP DNA Aptamer with 5′Q-5C:11 ACE) (DNA, aptamer) TCACTGACCTGGGGGAGTATTGCGGAGGAAGGT
Nature of the assay: solution FRET (Cy3/BHQ-2) equilibrium titration. The note with it: 300 mM Na+, 5 mM Mg2+; apparent; 25 °C; 200 nM aptamer; quencher ACE 5′Q-5C:11 displaced, Q:F 1:1; n = 1.2.

Assay [5] has as its system 5′Q-2T:9 DA (Cy3 ATP DNA Aptamer with 5′Q-2T:9 ACE) (DNA, aptamer) TCACTGACCTGGGGGAGTATTGCGGAGGAAGGT
Nature of the assay: solution FRET (Cy3/BHQ-2) equilibrium titration. The note with it: 300 mM Na+, 5 mM Mg2+; apparent; 25 °C; 200 nM aptamer; quencher ACE 5′Q-2T:9 displaced, Q:F 1:1; n = 1.3.

Assay [6] relates to 5′Q-5C:12 DA (Cy3 ATP DNA Aptamer with 5′Q-5C:12 ACE) (DNA, aptamer) TCACTGACCTGGGGGAGTATTGCGGAGGAAGGT
Nature of the assay: solution FRET (Cy3/BHQ-2) equilibrium titration. Particulars: 300 mM Na+, 5 mM Mg2+; apparent; 25 °C; 200 nM aptamer; quencher ACE 5′Q-5C:12 displaced, Q:F 1:1; n = 1.3.

As to `Nc1nc2c(ncn2[C@@H]2O[C@H](COP(=O)(O)OP(=O)(O)OP(=O)(O)O)[C@@H](O)[C@H]2O)c(=O)[nH]1`, the binding entry in assay [1] is given as “no”.

As for `Nc1ncnc2c1ncn2[C@@H]1O[C@H](COP(=O)(O)OP(=O)(O)OP(=O)(O)O)[C@@H](O)[C@H]1O`, the “Kd,Exp Obs” value in assay [2] was found to be 4.70 mM; in assay [3], 163 µM; in assay [4], 663 µM; in assay [5], 85 µM; in assay [6] it was 1.37 mM.
